One substance from patent US20230272465A1, “Systems and Methods to Enhance RNA Transcription and Uses Thereof” (The Board of Trustees of the Leland Stanford Junior …, priority 2020, published 2023) can be followed below.

“Also recorded” adds a separate entry of the source.

What all share (assay type): biochemical
Assay [1] concerns the target T1, T7 RNA polymerase (Escherichia phage T7, UniProt P00573). Kind of assay: Gel electrophoresis of T7 transcription reaction products. To be noted: 0.1 mM, 1 mM, 10 mM VRC versus 0 mM control; FIG. 3. As to the method:
Methods: A series of standard RNA transcription reactions were performed using T7 polymerase spiked with 0 mM, 0.1 mM, 1 mM, and 10 mM VRC. Post-incubation, the contents of each reaction were electrophoresed on a gel to qualitatively identify reaction product sizes.

Assay [2] deals with T1, T7 RNA polymerase. Kind of assay: Real-time RNA transcription reaction with T7 polymerase (fluorescence, TECAN plate reader). The following applies: 10 mM VRC, room temperature (~20° C.), 9000 seconds, FIG. 1A. As to the method:
Methods: A series of standard RNA transcription reactions were performed using T7 polymerase spiked with 0 mM, 0.1 mM, 1 mM, and 10 mM VRC. The reaction was performed at room temperature (˜20° C.) for 9000 seconds in a TECAN plate reader. Reaction yield was measured in reach reaction by measuring fluorescence in real-time using the TECAN plate reader.

The target in the next assay is T2, SP6 RNA polymerase (Enterobacteria phage SP6, UniProt P06221).
T2 sequence (P06221 1-874): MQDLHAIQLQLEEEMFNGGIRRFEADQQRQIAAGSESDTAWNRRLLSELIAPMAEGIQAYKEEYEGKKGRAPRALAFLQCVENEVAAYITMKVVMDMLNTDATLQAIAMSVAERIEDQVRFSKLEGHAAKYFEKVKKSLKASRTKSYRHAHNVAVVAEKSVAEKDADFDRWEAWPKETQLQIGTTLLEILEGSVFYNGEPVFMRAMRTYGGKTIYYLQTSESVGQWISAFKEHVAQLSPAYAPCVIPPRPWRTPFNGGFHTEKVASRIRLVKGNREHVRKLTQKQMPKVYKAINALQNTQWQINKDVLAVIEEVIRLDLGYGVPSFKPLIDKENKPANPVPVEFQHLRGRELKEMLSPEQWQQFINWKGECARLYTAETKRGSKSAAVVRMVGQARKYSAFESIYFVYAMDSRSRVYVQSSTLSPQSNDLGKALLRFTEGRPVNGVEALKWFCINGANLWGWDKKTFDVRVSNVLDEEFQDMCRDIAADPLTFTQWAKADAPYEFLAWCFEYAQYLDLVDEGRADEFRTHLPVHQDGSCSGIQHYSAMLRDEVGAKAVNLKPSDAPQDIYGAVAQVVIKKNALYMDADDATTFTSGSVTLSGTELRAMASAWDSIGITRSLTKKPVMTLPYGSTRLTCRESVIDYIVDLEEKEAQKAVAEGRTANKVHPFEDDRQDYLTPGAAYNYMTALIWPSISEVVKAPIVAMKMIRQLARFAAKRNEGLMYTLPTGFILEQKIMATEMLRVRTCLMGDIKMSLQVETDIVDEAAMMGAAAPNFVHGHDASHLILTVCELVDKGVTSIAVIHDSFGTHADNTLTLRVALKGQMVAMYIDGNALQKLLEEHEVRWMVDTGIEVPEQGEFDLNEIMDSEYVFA
Kind of assay: Real-time monitoring of SP6 RNA polymerase transcription reaction. The following applies: FIG. 1B. As to the method:
Turning to FIGS. 1A-1B, exemplary data of RNA yield measured from real time monitoring of RNA transcription reactions in accordance with certain embodiments are illustrated. In particular, FIG. 1A illustrates exemplary T7 RNA polymerase transcription reaction embodiments using 0.1 mM, 1 mM, and 10 mM concentrations of VRC against a 0 mM control.
However, FIG. 1B illustrates exemplary SP6 RNA polymerase transcription reaction embodiments using 0.1 mM, 1 mM, and 10 mM concentrations of VRC against a 0 mM control.

The target of assay [3] is T1, T7 RNA polymerase. Kind of assay: RNA yield after post-reaction clean-up, T7 polymerase transcription (NanoDrop UV-Vis). The following applies: 37° C., 4 hours, FIG. 2. As for the experimental part:
Methods: A series of standard RNA transcription reactions were performed using T7 polymerase spiked with 0 mM, 0.1 mM, 1 mM, and 10 mM VRC. The reaction was performed at 37° C. for 4 hours in a thermocycler. A post-reaction clean-up was used to remove any reagents, including enzymes, NTPs, buffers. The reaction was quantified using a NanoDrop UV-Vis spectrometer.

T1 sequence (P00573 whole entry): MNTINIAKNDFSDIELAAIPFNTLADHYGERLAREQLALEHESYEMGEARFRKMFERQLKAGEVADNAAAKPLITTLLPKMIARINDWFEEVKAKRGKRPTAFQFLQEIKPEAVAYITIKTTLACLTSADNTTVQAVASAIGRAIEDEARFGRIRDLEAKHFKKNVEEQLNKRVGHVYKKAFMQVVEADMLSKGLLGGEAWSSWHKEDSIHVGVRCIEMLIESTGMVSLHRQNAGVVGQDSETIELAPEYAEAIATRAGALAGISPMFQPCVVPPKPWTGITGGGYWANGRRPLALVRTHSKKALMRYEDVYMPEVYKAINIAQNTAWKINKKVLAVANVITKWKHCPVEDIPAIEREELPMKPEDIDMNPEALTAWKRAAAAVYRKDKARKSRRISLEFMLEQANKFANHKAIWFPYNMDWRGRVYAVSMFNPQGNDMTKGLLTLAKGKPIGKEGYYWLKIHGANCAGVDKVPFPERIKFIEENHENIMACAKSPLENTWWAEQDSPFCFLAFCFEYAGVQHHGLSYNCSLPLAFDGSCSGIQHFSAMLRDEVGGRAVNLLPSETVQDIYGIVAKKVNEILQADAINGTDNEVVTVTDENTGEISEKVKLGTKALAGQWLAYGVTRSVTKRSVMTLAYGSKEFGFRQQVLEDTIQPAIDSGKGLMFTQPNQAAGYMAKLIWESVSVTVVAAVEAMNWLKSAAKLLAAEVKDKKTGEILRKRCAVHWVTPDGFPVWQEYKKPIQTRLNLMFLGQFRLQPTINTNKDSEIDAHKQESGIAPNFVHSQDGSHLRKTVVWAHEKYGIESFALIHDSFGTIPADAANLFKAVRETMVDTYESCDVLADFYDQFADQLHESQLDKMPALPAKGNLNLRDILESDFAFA

With ribonucleoside vanadyl complex [VRC], the “reaction product sizes / degradation products on gel” value on T7 RNA polymerase [1] is listed as “no degradation of products; also recorded: no discernable differences in product sizes”. Besides, the “increase in RNA yield over 0 mM control” value was about 1.5 fold on T7 RNA polymerase [2], “approximately 2.3 fold” at T7 RNA polymerase [3] (0.1 mM VRC), “approximately 1.7 fold” at T7 RNA polymerase [3] (1 mM VRC) and “approximately 1.5 fold” on T7 RNA polymerase [3] (10 mM VRC). In addition, the “RNA yield versus 0 mM control” value is “no advantage in yield over the control” on SP6 RNA polymerase (0.1 mM VRC), “inhibition of SP6 RNA polymerase” on SP6 RNA polymerase (1 mM VRC) and “inhibition of SP6 RNA polymerase” on SP6 RNA polymerase (10 mM VRC).
